Measured values taken from patent publication US7033593B2, “Immunogen comprising an HIV envelope protein, a ligand and H2 peptide” (priority 2000, dated 2006).
“Also recorded” adds a separate entry of the source.

What was measured:
HIV-1 89.6 gp120 = HIV-1 89.6 gp120 (Human immunodeficiency virus type 1 group M subtype B, UniProt Q73372); type: binding; conditions: absence of sCD4 or mAb A32, blot 29A lanes 3 and 4
BaL gp120 = experiment: BIACORE capture assay: peptide binding to BaL gp120; set-up: species or system HIV-1 BaL; conditions: CCR5-utilizing isolate
Method: Rectangular bars represent the surface of the sensor chip on which sCD4 or mAbs A32 or T8 were covalently immobilized. Soluble gp120 proteins were first captured on each of these surfaces and then DP178 or sDP178 peptides were injected and their binding interactions were monitored. […] Based on their molecular size (1:27), 2000 RU of immobilized gp120 would bind 74 RU of DP178 peptide. […] Arrows point to start of injection of gp120 and DP178. […] In FIG. 27C, specific binding signal (solid) is shown after subtraction of non-specific signal (broken line). […] 50 μg/ml of DP178 peptide was flowed at 30 μl/min over each of these surfaces after 2000 RU of 89.6 gp120 was bound (FIG. 27D). In FIG. 27E, these same surfaces were also used to monitor binding of scrDP178 (50 μg/ml). […] (FIG. 27F) Binding of DP178 and DP107 peptides to A32-gp120 complex. […] Data are a representative experiment of 3 performed. […] 50 μg/ml of DP178 peptide was flowed at 30 μl/min over each of these surfaces after RU of BaL gp120 was bound (FIG. 27G). These same surfaces were also used to monitor binding of scrDP178 (50 μg/ml) (FIG. 27H).
Surface Plasmon Resonance Biosensor Measurements.

HIV-1 Env 89.6 gp120 = HIV-1 Env 89.6 gp120 (Human immunodeficiency virus type 1 group M subtype B, UniProt Q73372); experiment: biochemical; type: binding, HIV-1 89.6
Sequence of HIV-1 Env 89.6 gp120 (Q73372 32-508): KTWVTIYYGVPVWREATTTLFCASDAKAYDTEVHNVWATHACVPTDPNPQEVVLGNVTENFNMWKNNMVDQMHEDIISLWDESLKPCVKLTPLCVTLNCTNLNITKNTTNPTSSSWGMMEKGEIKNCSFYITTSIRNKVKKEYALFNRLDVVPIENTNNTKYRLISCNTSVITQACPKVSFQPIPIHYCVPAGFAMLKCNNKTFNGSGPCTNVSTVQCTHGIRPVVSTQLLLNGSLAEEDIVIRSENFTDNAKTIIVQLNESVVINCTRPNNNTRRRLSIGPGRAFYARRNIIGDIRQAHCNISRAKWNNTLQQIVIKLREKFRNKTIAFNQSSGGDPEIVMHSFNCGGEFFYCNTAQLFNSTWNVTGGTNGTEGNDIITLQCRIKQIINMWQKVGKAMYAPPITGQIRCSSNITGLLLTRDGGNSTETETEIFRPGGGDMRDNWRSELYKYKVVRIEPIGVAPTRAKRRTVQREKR

[1] = tested on: T8-gp140 (HIV 89.6 gp140); conditions: SPR
Method: FIG. 14A. […] FIGS. 14B and 14C. […] After stabilization of gp140 capture, either the 19b (anti-gp120 V3) or 2F5 (anti-gp41) antibodies (300 μg/ml) were injected to assess the relative amounts of gp120 and gp41 on both surfaces. FIGS. 14D–14F.
A blank chip served as an in-line reference surface for subtraction of non-specific binding and bulk responses.
Surface Plasmon Resonance Biosensor Measurements. SPR biosensor measurements were determined on a BIACORE 3000 (BIACORE Inc., Uppsala, Sweden) instrument. […] A blank in-line reference surface (activated and de-activated for amine coupling) was used to subtract non-specific or bulk responses. Binding of proteins and peptides (biotinylated or free DP178, T649Q26L, DP178-scrambled) was monitored in real-time at 25° C. with a continuous flow of PBS (150 mM NaCl, 0.005% surfactant p20), pH 7.4 at 10–30 μl/min. Analyte (proteins and peptides) were removed and the sensor surfaces were regenerated following each cycle of binding by single or duplicate 5–10 μl pulses of regeneration solution (10 mM glycine-HCl, pH 2.5 or 10 mM NaOH).

Sequence of HIV-1 89.6 gp120 (Q73372 32-508): as above

What does the source list for enfuvirtide?
band density of precipitated gp120 (HIV-1 89.6 gp120): 1.0 ODunits/mm^2; binding to BaL gp120 complexed with A32, CD4 or T8 (in words) (BaL gp120): neither DP178 nor scrDP178 bound; Kd (HIV-1 Env 89.6 gp120): 820 nM; faster component of the dissociation phase (HIV-1 Env 89.6 gp120; biphasic binding): 0.023 s⁻¹; slower component of the dissociation phase (HIV-1 Env 89.6 gp120; biphasic binding, predominant): 0.001 s⁻¹; binding to gp120 bound to CD4 or A32 (in words) (HIV-1 Env 89.6 gp120; peptide 50 μg/ml): specific induction of DP178 binding; also recorded: Marked induction; binding to gp120 bound to mAb T8 (in words) (HIV-1 Env 89.6 gp120; peptide 50 μg/ml): no differences were observed; binding to T8-gp140 surface (in words) [1]: near background binding
